Tests used:
Type in all cases: biochemical
c-Met = c-Met (Homo sapiens, UniProt P08581); experiment: c-Met Inhibition Assay, coupled enzyme system; conditions: enzyme inhibition data (Ki), Table 11
Method in brief: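 Pyruvate kinase/lactate dehydrogenase-coupled NADH assay in HEPES pH 7.5 with 80 nM c-Met, 200 μM ATP and 10 μM polyGluTyr at 30° C. Compound (0.006–12.5 μM final, 12-point) preincubated 10 min before ATP start; rates over 10 min gave Ki.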

Itk = target: T1, Itk (Homo sapiens, UniProt Q08881); experiment: ITK Inhibition Assay (Radiometric), radioactive-phosphate incorporation; conditions: enzyme inhibition data (Ki), Table 11; radiometric or UV assay not stated
T1 sequence (Q08881 1-620): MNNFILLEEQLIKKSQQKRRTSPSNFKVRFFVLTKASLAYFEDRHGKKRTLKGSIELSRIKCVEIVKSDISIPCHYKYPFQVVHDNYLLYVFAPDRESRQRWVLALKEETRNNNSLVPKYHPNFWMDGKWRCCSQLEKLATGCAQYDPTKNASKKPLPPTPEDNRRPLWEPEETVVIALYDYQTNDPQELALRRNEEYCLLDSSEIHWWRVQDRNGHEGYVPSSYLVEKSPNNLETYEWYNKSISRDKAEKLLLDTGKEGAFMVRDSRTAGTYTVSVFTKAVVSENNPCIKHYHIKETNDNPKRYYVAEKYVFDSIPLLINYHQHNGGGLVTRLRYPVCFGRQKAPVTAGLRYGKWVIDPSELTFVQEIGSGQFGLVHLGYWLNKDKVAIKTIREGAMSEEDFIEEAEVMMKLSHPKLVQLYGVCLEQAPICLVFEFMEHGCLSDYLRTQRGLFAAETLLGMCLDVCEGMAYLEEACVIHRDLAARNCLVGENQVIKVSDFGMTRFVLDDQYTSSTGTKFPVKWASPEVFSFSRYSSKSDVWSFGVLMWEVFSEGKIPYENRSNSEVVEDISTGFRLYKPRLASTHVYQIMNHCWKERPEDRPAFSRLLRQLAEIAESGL
Method in brief: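 Radiometric 33P incorporation into SAM68 peptide (D332-443) with filter capture and scintillation counting; 10 min pre-incubation then 10 min reaction at 25° C. IC50 format: 30 nM Itk, 15 μM ATP, 2 μM peptide, HEPES pH 7.5. Ki(app) format: 50 nM Itk, 7.5 μM ATP, 3 μM peptide, MOPS pH 7.0.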

JAK3 = target: T2, JAK3 (Homo sapiens, UniProt P52333); experiment: JAK3 Inhibition Assay, 33P incorporation; conditions: enzyme inhibition data (Ki), Table 11
T2 sequence (P52333 1-1124): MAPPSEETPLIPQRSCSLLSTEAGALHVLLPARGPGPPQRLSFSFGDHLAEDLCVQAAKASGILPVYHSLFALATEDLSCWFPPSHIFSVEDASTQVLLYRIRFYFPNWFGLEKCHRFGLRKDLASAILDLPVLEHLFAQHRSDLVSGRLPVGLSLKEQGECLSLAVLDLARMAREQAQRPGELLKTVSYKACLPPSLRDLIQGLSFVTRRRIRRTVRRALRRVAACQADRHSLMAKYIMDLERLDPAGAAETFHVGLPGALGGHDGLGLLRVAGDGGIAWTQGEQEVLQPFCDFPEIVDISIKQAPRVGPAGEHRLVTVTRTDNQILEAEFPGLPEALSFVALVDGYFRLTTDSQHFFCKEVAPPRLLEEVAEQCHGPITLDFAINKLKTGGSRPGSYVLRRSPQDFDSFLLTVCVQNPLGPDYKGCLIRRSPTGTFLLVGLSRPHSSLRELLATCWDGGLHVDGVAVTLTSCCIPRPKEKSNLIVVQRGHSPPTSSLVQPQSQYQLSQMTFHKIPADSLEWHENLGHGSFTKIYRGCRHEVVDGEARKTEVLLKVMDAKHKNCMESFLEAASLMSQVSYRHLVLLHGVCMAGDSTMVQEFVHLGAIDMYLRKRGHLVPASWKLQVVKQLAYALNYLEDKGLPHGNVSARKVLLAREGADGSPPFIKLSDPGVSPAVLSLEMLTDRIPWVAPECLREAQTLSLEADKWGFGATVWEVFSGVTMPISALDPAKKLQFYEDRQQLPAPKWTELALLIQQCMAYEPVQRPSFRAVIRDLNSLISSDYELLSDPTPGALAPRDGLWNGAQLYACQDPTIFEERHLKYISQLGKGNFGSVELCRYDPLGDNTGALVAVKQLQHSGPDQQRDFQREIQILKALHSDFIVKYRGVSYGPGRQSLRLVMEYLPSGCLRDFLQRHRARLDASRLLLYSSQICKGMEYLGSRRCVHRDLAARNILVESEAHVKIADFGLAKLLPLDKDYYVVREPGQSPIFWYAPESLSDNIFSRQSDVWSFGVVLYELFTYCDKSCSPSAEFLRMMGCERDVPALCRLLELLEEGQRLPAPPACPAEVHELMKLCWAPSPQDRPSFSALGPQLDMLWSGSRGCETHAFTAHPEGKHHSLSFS
Method in brief: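 33P incorporation into 1 μM poly(Glu)4Tyr was counted after TCA stop and glass fiber filtration. The 20 min reaction ran at 25 °C with 1 nM JAK3 and 5 μM ATP (200 uCi/μmole). Buffer was 100 mM HEPES pH 7.4, 10 mM MgCl2, 25 mM NaCl, 1 mM DTT, 0.01% BSA.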

Sequence of c-Met (P08581 25-1390): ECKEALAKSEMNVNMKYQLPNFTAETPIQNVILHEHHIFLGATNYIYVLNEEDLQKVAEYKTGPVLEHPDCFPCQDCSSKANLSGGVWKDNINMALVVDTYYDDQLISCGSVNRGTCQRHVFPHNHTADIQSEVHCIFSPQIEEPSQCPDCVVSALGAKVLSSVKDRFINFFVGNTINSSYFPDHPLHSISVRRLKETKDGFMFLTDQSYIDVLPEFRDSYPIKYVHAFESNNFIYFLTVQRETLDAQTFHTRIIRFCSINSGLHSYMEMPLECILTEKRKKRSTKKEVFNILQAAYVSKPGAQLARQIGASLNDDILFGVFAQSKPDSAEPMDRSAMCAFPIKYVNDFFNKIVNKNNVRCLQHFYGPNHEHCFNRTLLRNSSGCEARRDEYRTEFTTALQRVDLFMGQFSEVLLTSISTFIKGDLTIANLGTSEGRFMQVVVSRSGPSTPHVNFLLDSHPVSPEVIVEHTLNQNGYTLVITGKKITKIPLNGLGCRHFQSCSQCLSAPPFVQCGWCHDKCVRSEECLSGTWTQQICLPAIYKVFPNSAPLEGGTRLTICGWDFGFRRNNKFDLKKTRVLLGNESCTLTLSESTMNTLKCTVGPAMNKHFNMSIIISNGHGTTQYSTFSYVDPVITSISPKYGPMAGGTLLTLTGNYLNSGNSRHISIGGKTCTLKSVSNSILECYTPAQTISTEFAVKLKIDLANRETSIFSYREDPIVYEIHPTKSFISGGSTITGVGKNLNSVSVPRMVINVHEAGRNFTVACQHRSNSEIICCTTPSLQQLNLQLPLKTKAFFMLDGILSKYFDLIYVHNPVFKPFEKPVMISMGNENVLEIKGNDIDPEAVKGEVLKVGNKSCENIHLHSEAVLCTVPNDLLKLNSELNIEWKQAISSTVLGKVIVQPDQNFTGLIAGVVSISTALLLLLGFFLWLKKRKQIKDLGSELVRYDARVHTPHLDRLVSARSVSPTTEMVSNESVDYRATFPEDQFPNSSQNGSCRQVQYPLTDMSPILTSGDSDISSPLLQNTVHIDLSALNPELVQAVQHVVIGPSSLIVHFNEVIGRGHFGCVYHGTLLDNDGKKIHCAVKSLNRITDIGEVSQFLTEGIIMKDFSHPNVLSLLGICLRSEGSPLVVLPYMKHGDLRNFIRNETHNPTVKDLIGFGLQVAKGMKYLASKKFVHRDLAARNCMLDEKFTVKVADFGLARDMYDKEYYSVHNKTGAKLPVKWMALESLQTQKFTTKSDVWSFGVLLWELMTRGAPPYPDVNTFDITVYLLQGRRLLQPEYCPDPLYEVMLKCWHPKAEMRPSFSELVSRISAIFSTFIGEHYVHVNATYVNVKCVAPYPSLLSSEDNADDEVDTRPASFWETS

| Ki (c-Met) [nM] | Ki (Itk) [nM] | Ki (JAK3) [nM] | Compound |
| --- | --- | --- | --- |
| < 500 | 500 to 5000 | 500 to 5000 | Nc1nn2cc(-c3cccc(C(=O)N4CCC(N)C4)n3)cnc2c1-c1ccccn1 (stereo not drawn) [Compound V-119] |
| < 500 | < 500 | 500 to 5000 | CN(CCN)C(=O)c1cccc(-c2cnc3c(-c4ccccn4)c(N)nn3c2)n1 [Compound V-120] |
| < 500 | < 500 | 500 to 5000 | CCCN(CCCN)C(=O)c1cccc(-c2cnc3c(-c4ccccn4)c(N)nn3c2)n1 [Compound V-122] |
| < 500 | 500 to 5000 | > 5000 | Nc1nn2cc(-c3cccc(C(=O)N4CCC4)n3)cnc2c1-c1ccccn1 [Compound V-123] |
| < 500 | 500 to 5000 | > 5000 | CC(C)CN(C)C(=O)c1cccc(-c2cnc3c(-c4ccccn4)c(N)nn3c2)n1 [Compound V-125] |
| < 500 | 500 to 5000 | > 5000 | CCN(CCN)C(=O)c1cccc(-c2cnc3c(-c4ccccn4)c(N)nn3c2)n1 [Compound V-126] |
| < 500 | 500 to 5000 | > 5000 | CCN(CCO)C(=O)c1cccc(-c2cnc3c(-c4ccccn4)c(N)nn3c2)n1 [Compound V-128] |
| 500 to 5000 | 500 to 5000 | 500 to 5000 | Nc1nn2cc(-c3ccncc3)cnc2c1C(=O)c1ccccc1 [Compound V-131] |
| 500 to 5000 | 500 to 5000 | > 5000 | Nc1nn2cc(-c3ccncn3)cnc2c1-c1nncn1Cc1ccc(Cl)c(Cl)c1 [Compound V-136] |
| 500 to 5000 | 500 to 5000 | > 5000 | Nc1nn2cc(-c3ccncc3)cnc2c1-c1cccc(Br)n1 [Compound V-137] |
| 500 to 5000 | 500 to 5000 | > 5000 | Nc1nn2cc(-c3ccncc3)cnc2c1-c1cccc(NCCC2=CCCCC2)n1 [Compound V-138] |
| < 500 | 500 to 5000 | > 5000 | Nc1nn2cc(-c3cccc(C(=O)N4CCCC(O)C4)n3)cnc2c1-c1ccccn1 (stereo not drawn) [Compound V-140] |
| < 500 | 500 to 5000 | > 5000 | Nc1nn2cc(-c3cccc(C(=O)N4CCC(CCO)CC4)n3)cnc2c1-c1ccccn1 [Compound V-141] |
| < 500 | 500 to 5000 | 500 to 5000 | CN(CC1OCCO1)C(=O)c1cccc(-c2cnc3c(-c4ccccn4)c(N)nn3c2)n1 [Compound V-142] |
| < 500 | 500 to 5000 | > 5000 | Nc1nn2cc(-c3ccc(N4CCOCC4)nc3)cnc2c1-c1ccccn1 [Compound V-144] |
| < 500 | < 500 | > 5000 | CN1CCN(c2ccc(-c3cnc4c(-c5ccccn5)c(N)nn4c3)cn2)CC1 [Compound V-145] |
| 500 to 5000 | 500 to 5000 | > 5000 | Nc1nn2cc(-c3ccc(N4CCCCC4)nc3)cnc2c1-c1ccccn1 [Compound V-147] |
| < 500 | < 500 | 500 to 5000 | Nc1nn2cc(-c3ccc(N4CCN(CCO)CC4)nc3)cnc2c1-c1ccccn1 [Compound V-148] |
| < 500 | 500 to 5000 | 500 to 5000 | CC(=O)N1CCN(c2ccc(-c3cnc4c(-c5ccccn5)c(N)nn4c3)cn2)CC1 [Compound V-149] |
| < 500 | < 500 | > 5000 | Nc1nn2cc(-c3ccc(N4CCN(CCOCCO)CC4)nc3)cnc2c1-c1ccccn1 [Compound V-150] |

| Ki (c-Met) [nM] | Ki (Itk) [nM] | Ki (JAK3) [nM] | Compound |
| --- | --- | --- | --- |
| < 500 | < 500 | 500 to 5000 | Nc1nn2cc(-c3ccc(C(=O)N4CCC[C@@H]4CN4CCCC4)cn3)cnc2c1-c1ccccn1 [Compound V-153] |
| < 500 | < 500 | > 5000 | CCN(CCN)c1ccc(-c2cnc3c(-c4ccccn4)c(N)nn3c2)cn1 [Compound V-157] |
| < 500 | 500 to 5000 | > 5000 | CCCN(CCO)c1ccc(-c2cnc3c(-c4ccccn4)c(N)nn3c2)cn1 [Compound V-158] |
| < 500 | 500 to 5000 | > 5000 | Nc1nn2cc(-c3ccc(NCCCC4=NCC=N4)nc3)cnc2c1-c1ccccn1 [Compound V-161] |
| 500 to 5000 | 500 to 5000 | > 5000 | Nc1nn2cc(-c3ccc(N4CCN(c5cnccn5)CC4)nc3)cnc2c1-c1ccccn1 [Compound V-162] |
| < 500 | 500 to 5000 | > 5000 | Nc1nn2cc(-c3ccc(N4CCN(Cc5ccncc5)CC4)nc3)cnc2c1-c1ccccn1 [Compound V-163] |
| < 500 | < 500 | > 5000 | Nc1nn2cc(-c3ccc(N4CCC(N5CCCC5)CC4)nc3)cnc2c1-c1ccccn1 [Compound V-164] |
| < 500 | 500 to 5000 | > 5000 | CCOC(=O)C1CCCN(c2ccc(-c3cnc4c(-c5ccccn5)c(N)nn4c3)cn2)C1 (stereo not drawn) [Compound V-167] |
| 500 to 5000 | 500 to 5000 | > 5000 | CN(CCc1ccccn1)c1ccc(-c2cnc3c(-c4ccccn4)c(N)nn3c2)cn1 [Compound V-168] |
| < 500 | < 500 | > 5000 | CN1CCC(N(C)c2ccc(-c3cnc4c(-c5ccccn5)c(N)nn4c3)cn2)CC1 [Compound V-169] |
| 500 to 5000 | 500 to 5000 | > 5000 | Nc1nn2cc(-c3ccc(N4CCSCC4)nc3)cnc2c1-c1ccccn1 [Compound V-170] |
| < 500 | 500 to 5000 | > 5000 | CCN(C)c1ccc(-c2cnc3c(-c4ccccn4)c(N)nn3c2)cn1 [Compound V-171] |
| 500 to 5000 | 500 to 5000 | > 5000 | CC(C)CN(C)c1ccc(-c2cnc3c(-c4ccccn4)c(N)nn3c2)cn1 [Compound V-172] |
| 500 to 5000 | 500 to 5000 | > 5000 | CCOC(=O)N1CCN(c2ccc(-c3cnc4c(-c5ccccn5)c(N)nn4c3)cn2)CC1 [Compound V-174] |
| 500 to 5000 | < 500 | > 5000 | COc1ccc(-c2cnc3c(-c4ccccc4)c(N)nn3c2)cc1 [Compound V-186] |
| < 500 | 500 to 5000 | > 5000 | Nc1nn2cc(-c3ccncc3)cnc2c1-c1ccccc1 [Compound V-187] |
| < 500 | < 500 | > 5000 | N#Cc1cccc(-c2cnc3c(-c4ccccn4)c(N)nn3c2)c1 [Compound V-197] |
| 500 to 5000 | 500 to 5000 | > 5000 | Nc1nn2cc(C(=O)NCCc3ccccc3)cnc2c1-c1ccccn1 [Compound V-198] |
| 500 to 5000 | 500 to 5000 | > 5000 | Nc1ccc(CNC(=O)c2cnc3c(-c4ccccn4)c(N)nn3c2)cc1 [Compound V-199] |
